What is called IC50 is the point on the concentration scale where inhibition reaches its midpoint.

The nature of the assay: Inhibition of 10 uM ADP-induced human gel filtered platelet aggregation with 0.1 mg/mL human fibrinogen.

Consider `O=C(O)CCNC(=O)c1cccc(C(=O)NCC2CCNCC2)c1` [3-{3-[(Piperidin-4-ylmethyl)-carbamoyl]-benzoylamino}-propionic acid], for which the half-maximal inhibitory concentration (IC50) was 330 µM.

The molecule `O=C(O)CCNC(=O)c1ccc2c(c1)C(=O)C(CCC1CCNCC1)C2` (centres undefined) [3-{[3-Oxo-2-(2-piperidin-4-yl-ethyl)-indane-5-carbonyl]-amino}-propionic acid] came in with a half-inhibitory concentration (IC50) of 2300 µM.

The molecule `O=C(O)CCNC(=O)c1ccc2c(c1)C(=O)N(CCC1CCNCC1)C2` [3-{[3-Oxo-2-(2-piperidin-4-yl-ethyl)-2,3-dihydro-1H-isoindole-5-carbonyl]-amino}-propionic acid(L-709780)] came in with a 50% inhibitory concentration (IC50) of 25 µM.

As to `O=C(O)CCN1Cc2ccc(C(=O)NCCC3CCNCC3)cc2C1=O` [3-[1-Oxo-6-(2-piperidin-4-yl-ethylcarbamoyl)-1,3-dihydro-isoindol-2-yl]-propionic acid], it took 10000 µM to reach half-maximal inhibition (IC50).

These data come from BindingDB's records for doi:10.1016/S0960-894X(01)80381-4 (n/a, 1994).
